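Each compound was tested at five concentrations against cells in 96-well plates for 48 hours. Abbreviation: GI50, concentration required for 50% inhibition of growth. TGI: total growth inhibition.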
Experiments:
Assay in all cases: growth of human tumour cells (NCI), 48 h
UACC-62 melanoma = test system: UACC-62 melanoma
IGROV1 ovarian = test system: IGROV1 ovarian
TK-10 renal = test system: TK-10 renal
HOP-62 NSCLC = test system: HOP-62 NSCLC
UACC-257 melanoma = test system: UACC-257 melanoma
A549 NSCLC = test system: A549 NSCLC
SK-OV-3 ovarian = test system: SK-OV-3 ovarian
BT-549 breast = test system: BT-549 breast
NCI-H23 lung = test system: NCI-H23 lung
SNB-19 CNS = test system: SNB-19 CNS

Compound | GI50 (UACC-62 melanoma) [µM] | TGI (UACC-62 melanoma) [µM] | GI50 (IGROV1 ovarian) [µM] | TGI (IGROV1 ovarian) [µM] | GI50 (TK-10 renal) [µM] | TGI (TK-10 renal) [µM] | GI50 (HOP-62 NSCLC) [µM] | TGI (HOP-62 NSCLC) [µM] | GI50 (UACC-257 melanoma) [µM] | TGI (UACC-257 melanoma) [µM] | GI50 (A549 NSCLC) [µM] | TGI (A549 NSCLC) [µM] | GI50 (SK-OV-3 ovarian) [µM] | TGI (SK-OV-3 ovarian) [µM] | GI50 (BT-549 breast) [µM] | TGI (BT-549 breast) [µM] | GI50 (NCI-H23 lung) [µM] | TGI (NCI-H23 lung) [µM] | GI50 (SNB-19 CNS) [µM] | TGI (SNB-19 CNS) [µM]
O=C(N/N=C/c1cc2ccccc2c2ccccc12)c1cc(O)c(O)c(O)c1 | 2.75 | 9.4 | 4.14 | 20.5 | 4.48 | 30.7 | 3.37 | 12.4 | 10.2 | 24.6 | 12.7 | 39.2 | 4.31 | 15.6 | 3.74 | 16.8 | 3.4 | 14.3 | 3.6 | 18.7
O=C1/C(=C\c2ccccc2)c2ccccc2N1Cc1ccccc1 | – | 14.3 | – | 16.5 | – | 17.4 | – | 17.6 | – | 17.6 | – | 22.5 | – | 15.8 | – | 14.2 | – | 16.8 | – | 15
C/C=C(/C)C(=O)OC1C=C(CO)C(=O)C(OC(=O)/C(C)=C\C)C1C(C)C (stereo not given) | 0.644 | 1.98 | 0.96 | 2.43 | 1.38 | 2.79 | 2.03 | 3.73 | 1.28 | 2.65 | 1.45 | 2.94 | 2.27 | 4.48 | 1.45 | 2.88 | 1.5 | 3.23 | 1.46 | 2.85
COc1ccc(/C=N/NC(=O)O)cc1 | – | > 100 | – | > 100 | – | > 100 | – | > 100 | – | > 100 | – | > 100 | – | > 100 | – | > 100 | – | > 100 | – | > 100

— PubChem BioAssay (NCI)
